# Tested on: maximal electroshock seizures (MES)
# Experiment: animal or person
# Format: in vivo, male Carworth Farms number-1 mice
# Conditions: 30 minutes, 30 mg/kg, mice i.p.
# Procedure: (§1) Compounds were screened for anticonvulsant activity in male Carworth Farms number-1 mice. Test solutions of all compounds were prepared in 30% polyethylene glycol 400, and animals were dosed intraperitoneally at either 30 minutes or 4 hours prior to testing. Testing was conducted on four mice at each of three dose levels (30, 100, and 300 mg/kg).
# (§2) Maximal electroshock seizures (MES) were elicited with a 60 cycle alternatiing current of 50-mA intensity (five to seven times that necessary to evoke minimal electroshock threshold seizures). Current was delivered via corneal electrodes for 0.2 s. A drop of 0.9% saline was instilled in the eye prior to application of electrodes. Abolition of the hindlimb tonic extension component of the seizure was defined as protection in the MES test.
# as §1, with “Biological testing--Compounds” for “Compounds”, “number-one” for “number-1”, “min” for “minutes”, “h” for “hours”
# as §2, with “alternating” for “alternatiing”
row,SMILES,MES
1,"CNc1cc(C(=O)O)nc2cc(Cl)cc(Cl)c12 [5,7-di-Cl-4-methylamino-kyn-2-COOH, 4-methylamino-5,7-dichloro-2-quinoline carboxylic acid]",0/1
2,"CCCCOC(=O)c1cc(NC)c2c(Cl)cc(Cl)cc2n1 [Butyl 4-Methylamino-5,7-dichloro-2-quinoline Carboxylate]",0/1

# Same assay, conditions: 30 minutes, 100 mg/kg, mice i.p.
row,SMILES,MES
1,"CNc1cc(C(=O)O)nc2cc(Cl)cc(Cl)c12 [5,7-di-Cl-4-methylamino-kyn-2-COOH, 4-methylamino-5,7-dichloro-2-quinoline carboxylic acid]",0/3
2,"CCCCOC(=O)c1cc(NC)c2c(Cl)cc(Cl)cc2n1 [Butyl 4-Methylamino-5,7-dichloro-2-quinoline Carboxylate]",0/3

# Same assay, conditions: 30 minutes, 300 mg/kg, mice i.p.
row,SMILES,MES
1,"CNc1cc(C(=O)O)nc2cc(Cl)cc(Cl)c12 [5,7-di-Cl-4-methylamino-kyn-2-COOH, 4-methylamino-5,7-dichloro-2-quinoline carboxylic acid]",1/1
2,"CCCCOC(=O)c1cc(NC)c2c(Cl)cc(Cl)cc2n1 [Butyl 4-Methylamino-5,7-dichloro-2-quinoline Carboxylate]",0/1

# Same assay, conditions: 4 hours, 30 mg/kg, mice i.p.
row,SMILES,MES
1,"CNc1cc(C(=O)O)nc2cc(Cl)cc(Cl)c12 [5,7-di-Cl-4-methylamino-kyn-2-COOH, 4-methylamino-5,7-dichloro-2-quinoline carboxylic acid]",0/1
2,"CCCCOC(=O)c1cc(NC)c2c(Cl)cc(Cl)cc2n1 [Butyl 4-Methylamino-5,7-dichloro-2-quinoline Carboxylate]",0/1

# Same assay, conditions: 4 hours, 100 mg/kg, mice i.p.
row,SMILES,MES
1,"CNc1cc(C(=O)O)nc2cc(Cl)cc(Cl)c12 [5,7-di-Cl-4-methylamino-kyn-2-COOH, 4-methylamino-5,7-dichloro-2-quinoline carboxylic acid]",0/3
2,"CCCCOC(=O)c1cc(NC)c2c(Cl)cc(Cl)cc2n1 [Butyl 4-Methylamino-5,7-dichloro-2-quinoline Carboxylate]",0/3

# Same assay, conditions: 4 hours, 300 mg/kg, mice i.p.
row,SMILES,MES
1,"CNc1cc(C(=O)O)nc2cc(Cl)cc(Cl)c12 [5,7-di-Cl-4-methylamino-kyn-2-COOH, 4-methylamino-5,7-dichloro-2-quinoline carboxylic acid]",0/1
2,"CCCCOC(=O)c1cc(NC)c2c(Cl)cc(Cl)cc2n1 [Butyl 4-Methylamino-5,7-dichloro-2-quinoline Carboxylate]",0/1

# Same assay, conditions: Mus musculus, ip; Table 7, value without parentheses = effective dose; read-out: Effective Intraperitoneal Dose, MES
row,SMILES,minimal effective dose
1,"CNc1cc(C(=O)O)nc2cc(Cl)cc(Cl)c12 [5,7-di-Cl-4-methylamino-kyn-2-COOH, 4-methylamino-5,7-dichloro-2-quinoline carboxylic acid]",100 mg/kg

# Same assay, conditions: Mus musculus, ip; mice, intraperitoneal; read-out: dose active in MES test
row,SMILES,minimal effective dose
1,"CNc1cc(C(=O)O)nc2cc(Cl)cc(Cl)c12 [5,7-di-Cl-4-methylamino-kyn-2-COOH, 4-methylamino-5,7-dichloro-2-quinoline carboxylic acid]",100 mg/kg

# Tested on: pentylenetetrazole (Metrazol) induced seizures
# Experiment: Subcutaneous pentylenetetrazole (Metrazol) seizure threshold test (Met) in mice
# Format: in vivo, male Carworth Farms number-1 mice
# Conditions: 30 minutes, 30 mg/kg, mice i.p.
# Procedure: as §1
# (§3) In the subcutaneous pentylenetetrazole (Metrazol) seizure threshold test(met), 85 mg/kg pentylenetetrazole was administered as a 0.5% solution in the posterior midline. Protection in this test was defined as a failure to observe a single episode of clonic spasms of at least 5 s duration during the 30 minute period following administration of the convulsive agent.
# as §1, with “Biological testing--Compounds” for “Compounds”, “number-one” for “number-1”, “min” for “minutes”, “h” for “hours”
# as §3, with “test (Met),” for “test(met),”, “min” for “minute”
row,SMILES,Sc MET
1,"CNc1cc(C(=O)O)nc2cc(Cl)cc(Cl)c12 [5,7-di-Cl-4-methylamino-kyn-2-COOH, 4-methylamino-5,7-dichloro-2-quinoline carboxylic acid]",0/2
2,"CCCCOC(=O)c1cc(NC)c2c(Cl)cc(Cl)cc2n1 [Butyl 4-Methylamino-5,7-dichloro-2-quinoline Carboxylate]",0/1

# Same assay, conditions: 30 minutes, 100 mg/kg, mice i.p.
row,SMILES,Sc MET
1,"CNc1cc(C(=O)O)nc2cc(Cl)cc(Cl)c12 [5,7-di-Cl-4-methylamino-kyn-2-COOH, 4-methylamino-5,7-dichloro-2-quinoline carboxylic acid]",0/1
2,"CCCCOC(=O)c1cc(NC)c2c(Cl)cc(Cl)cc2n1 [Butyl 4-Methylamino-5,7-dichloro-2-quinoline Carboxylate]",0/1

# Same assay, conditions: 30 minutes, 300 mg/kg, mice i.p.
row,SMILES,Sc MET
1,"CNc1cc(C(=O)O)nc2cc(Cl)cc(Cl)c12 [5,7-di-Cl-4-methylamino-kyn-2-COOH, 4-methylamino-5,7-dichloro-2-quinoline carboxylic acid]",1/1
2,"CCCCOC(=O)c1cc(NC)c2c(Cl)cc(Cl)cc2n1 [Butyl 4-Methylamino-5,7-dichloro-2-quinoline Carboxylate]",0/1

# Same assay, conditions: 4 hours, 30 mg/kg, mice i.p.
row,SMILES,Sc MET
1,"CNc1cc(C(=O)O)nc2cc(Cl)cc(Cl)c12 [5,7-di-Cl-4-methylamino-kyn-2-COOH, 4-methylamino-5,7-dichloro-2-quinoline carboxylic acid]",0/1
2,"CCCCOC(=O)c1cc(NC)c2c(Cl)cc(Cl)cc2n1 [Butyl 4-Methylamino-5,7-dichloro-2-quinoline Carboxylate]",0/1

# Same assay, conditions: 4 hours, 100 mg/kg, mice i.p.
row,SMILES,Sc MET
1,"CNc1cc(C(=O)O)nc2cc(Cl)cc(Cl)c12 [5,7-di-Cl-4-methylamino-kyn-2-COOH, 4-methylamino-5,7-dichloro-2-quinoline carboxylic acid]",0/1
2,"CCCCOC(=O)c1cc(NC)c2c(Cl)cc(Cl)cc2n1 [Butyl 4-Methylamino-5,7-dichloro-2-quinoline Carboxylate]",0/1

# Same assay, conditions: 4 hours, 300 mg/kg, mice i.p.
row,SMILES,Sc MET
1,"CNc1cc(C(=O)O)nc2cc(Cl)cc(Cl)c12 [5,7-di-Cl-4-methylamino-kyn-2-COOH, 4-methylamino-5,7-dichloro-2-quinoline carboxylic acid]",0/1
2,"CCCCOC(=O)c1cc(NC)c2c(Cl)cc(Cl)cc2n1 [Butyl 4-Methylamino-5,7-dichloro-2-quinoline Carboxylate]",0/1

# Same assay, conditions: Mus musculus, ip; Table 7, value without parentheses = effective dose; read-out: Effective Intraperitoneal Dose, Met
row,SMILES,minimal effective dose
1,"CNc1cc(C(=O)O)nc2cc(Cl)cc(Cl)c12 [5,7-di-Cl-4-methylamino-kyn-2-COOH, 4-methylamino-5,7-dichloro-2-quinoline carboxylic acid]",300 mg/kg

# Tested on: neurological deficit (rotorod)
# Experiment: Rotorod test for neurological deficit (TOX) in mice
# Format: in vivo, male Carworth Farms number-1 mice
# Conditions: mouse, in vivo, ip
# Procedure: as §1
# Animals were also tested for neurological deficit using the rotorod. After treatment, the animal was placed on a 1 inch diameter knurled plastic rod rotating at 6 rpm. Neurologic deficit was defined as the failure of the animal to remain on the rod for 1 minute.
# as §1, with “Biological testing--Compounds” for “Compounds”, “number-one” for “number-1”, “min” for “minutes”, “h” for “hours”
# Animals were also tested for neurological deficit using the rotorod. After treatment, the animal was placed on a 1 inch diameter knurled plastic rod rotating at 6 rpm. Neurologic deficit was defined as the failure of the animal to remain on the rod for 1 min.
SMILES,"Effective Intraperitoneal Dose, Rotorod",dose causing neurological deficit on rotorod
"CNc1cc(C(=O)O)nc2cc(Cl)cc(Cl)c12 [5,7-di-Cl-4-methylamino-kyn-2-COOH, 4-methylamino-5,7-dichloro-2-quinoline carboxylic acid]",100 mg/kg,300 mg/kg

# Same assay, conditions: mouse, in vivo, ip, 300 mg/kg
row,SMILES,TOX comment
1,"CNc1cc(C(=O)O)nc2cc(Cl)cc(Cl)c12 [5,7-di-Cl-4-methylamino-kyn-2-COOH, 4-methylamino-5,7-dichloro-2-quinoline carboxylic acid]",Unable to hold onto rotorod

# Molecular target: T1, strychnine-insensitive glycine binding site of the NMDA receptor (Rattus norvegicus, UniProt P35439)
# T1 construct: Membranes were prepared from rat cerebral cortex; from tissue; host or cells: rat cerebral cortex, "buffy coat" membranes
# Experiment: Inhibition of [3H]glycine specific binding (strychnine-insensitive) in rat cerebral cortex membranes
# Conditions: 10 uM compound
# Procedure: Binding Studies--Inhibition of [^3 H]glycine specific binding was assayed using [^3 H]glycine (43 Ci/mmol) obtained from DuPont-New England Nuclear. […] Membranes were prepared from rat cerebral cortex and assays were conducted in Na-free 50 mM HEPES (Sigma) at pH 7.4. Membranes were incubated in a final volume of 1 ml with 20 nM [^3 H]glycine and a 10 uM concentration of the test compound. Although experience has shown that [^3 H]glycine binding in this preparation is strychnine insensitive, 10 uM strychnine was added to the assay mixtures to eliminate the possibility that any effects studied could be mediated through a strychnine-sensitive process. Incubation was continued for 20 min at 4° C. Non-specific binding was determined in the presence of 1 mM glycine and subtracted. All conditions were tested in triplicate in 3 different assays. Binding was terminated using a Brandel M-24C cell harvester employing rapid filtration through GF/C glass fiber filters pre-soaked in 1% (V/V) polyethylenimine. Filters were washed twice with 5 ml buffer cooled to 4° C. Radioactivity bound to the filters was determined with a Beckman LS-500OTD liquid scintillation counter.
row,SMILES,[3H]glycine binding inhibition
1,"CNc1cc(C(=O)O)nc2cc(Cl)cc(Cl)c12 [5,7-di-Cl-4-methylamino-kyn-2-COOH, 4-methylamino-5,7-dichloro-2-quinoline carboxylic acid]",best inhibitor of [^3 H]glycine binding

# Tested on: seizures induced by electroshock and pentylenetetrazole
# Experiment: Anticonvulsant testing, overall (MES and Met)
# Format: in vivo, male Carworth Farms number-1 mice
# Conditions: Mus musculus, ip; mice, intraperitoneal; read-out: dose level with anticonvulsant activity (test not given)
# Procedure: as §1, §2, §3
# as §1, with “Biological testing--Compounds” for “Compounds”, “number-one” for “number-1”, “min” for “minutes”, “h” for “hours”
# as §2, with “alternating” for “alternatiing”
# as §3, with “test (Met),” for “test(met),”, “min” for “minute”
row,SMILES,minimal effective dose
1,"CNc1cc(C(=O)O)nc2cc(Cl)cc(Cl)c12 [5,7-di-Cl-4-methylamino-kyn-2-COOH, 4-methylamino-5,7-dichloro-2-quinoline carboxylic acid]",≤ 100 mg/kg

# Same assay, conditions: Phase I Identification: mice, i.p.; classes not defined in the patent
row,SMILES,CLASS
1,"CNc1cc(C(=O)O)nc2cc(Cl)cc(Cl)c12 [5,7-di-Cl-4-methylamino-kyn-2-COOH, 4-methylamino-5,7-dichloro-2-quinoline carboxylic acid]",2
2,"CCCCOC(=O)c1cc(NC)c2c(Cl)cc(Cl)cc2n1 [Butyl 4-Methylamino-5,7-dichloro-2-quinoline Carboxylate]",31

# Same assay, conditions: mice, intraperitoneal
row,SMILES,anticonvulsant activity (words)
1,"CCCCOC(=O)c1cc(NC)c2c(Cl)cc(Cl)cc2n1 [Butyl 4-Methylamino-5,7-dichloro-2-quinoline Carboxylate]",inactive

# Same assay, conditions: mice, intraperitoneal; listed as 5,7-di-Cl-4-methylamino-2-butyl ester
row,SMILES,anticonvulsant activity (words)
1,"CCCCOC(=O)c1cc(NC)c2c(Cl)cc(Cl)cc2n1 [Butyl 4-Methylamino-5,7-dichloro-2-quinoline Carboxylate]",inactive in anticonvulsant testing

# Same assay, conditions: mice, intraperitoneal; listed as ester-4-methylamino-5,7-dichloro quinoline-2-carboxylate n-butyryl
row,SMILES,anticonvulsant activity (words)
1,"CCCCOC(=O)c1cc(NC)c2c(Cl)cc(Cl)cc2n1 [Butyl 4-Methylamino-5,7-dichloro-2-quinoline Carboxylate]",lack of anticonvulsant activity

# Reference: US5493027A, “Anticonvulsive agents and uses thereof” (priority 1993, dated 1996)
